Source: patent US9216999B2, “Substituted pyrrolo[2,3-h][1,6]naphthyridines and compositions thereof as JAK inhibitors” (priority 2011, dated 2015)

How the values were obtained:
Type in all cases: biochemical
Settings in all cases: ATP 100 μM
JAK2 = JAK2 (Homo sapiens (Human), UniProt O60674); experiment: Enzyme assay (Assay Example^a 1), JAK2
JAK3 = JAK3 (Homo sapiens (Human), UniProt P52333); experiment: Enzyme assay (Assay Example^a 1), JAK3
JAK1 = JAK1 (Homo sapiens (Human), UniProt P23458); experiment: Enzyme assay (Assay Example^a 1), JAK1
Tyk2 = Tyk2 (Homo sapiens (Human), UniProt P29597); experiment: Enzyme assay (Assay Example^a 1), Tyk2
Chain of Tyk2 (P29597 whole entry): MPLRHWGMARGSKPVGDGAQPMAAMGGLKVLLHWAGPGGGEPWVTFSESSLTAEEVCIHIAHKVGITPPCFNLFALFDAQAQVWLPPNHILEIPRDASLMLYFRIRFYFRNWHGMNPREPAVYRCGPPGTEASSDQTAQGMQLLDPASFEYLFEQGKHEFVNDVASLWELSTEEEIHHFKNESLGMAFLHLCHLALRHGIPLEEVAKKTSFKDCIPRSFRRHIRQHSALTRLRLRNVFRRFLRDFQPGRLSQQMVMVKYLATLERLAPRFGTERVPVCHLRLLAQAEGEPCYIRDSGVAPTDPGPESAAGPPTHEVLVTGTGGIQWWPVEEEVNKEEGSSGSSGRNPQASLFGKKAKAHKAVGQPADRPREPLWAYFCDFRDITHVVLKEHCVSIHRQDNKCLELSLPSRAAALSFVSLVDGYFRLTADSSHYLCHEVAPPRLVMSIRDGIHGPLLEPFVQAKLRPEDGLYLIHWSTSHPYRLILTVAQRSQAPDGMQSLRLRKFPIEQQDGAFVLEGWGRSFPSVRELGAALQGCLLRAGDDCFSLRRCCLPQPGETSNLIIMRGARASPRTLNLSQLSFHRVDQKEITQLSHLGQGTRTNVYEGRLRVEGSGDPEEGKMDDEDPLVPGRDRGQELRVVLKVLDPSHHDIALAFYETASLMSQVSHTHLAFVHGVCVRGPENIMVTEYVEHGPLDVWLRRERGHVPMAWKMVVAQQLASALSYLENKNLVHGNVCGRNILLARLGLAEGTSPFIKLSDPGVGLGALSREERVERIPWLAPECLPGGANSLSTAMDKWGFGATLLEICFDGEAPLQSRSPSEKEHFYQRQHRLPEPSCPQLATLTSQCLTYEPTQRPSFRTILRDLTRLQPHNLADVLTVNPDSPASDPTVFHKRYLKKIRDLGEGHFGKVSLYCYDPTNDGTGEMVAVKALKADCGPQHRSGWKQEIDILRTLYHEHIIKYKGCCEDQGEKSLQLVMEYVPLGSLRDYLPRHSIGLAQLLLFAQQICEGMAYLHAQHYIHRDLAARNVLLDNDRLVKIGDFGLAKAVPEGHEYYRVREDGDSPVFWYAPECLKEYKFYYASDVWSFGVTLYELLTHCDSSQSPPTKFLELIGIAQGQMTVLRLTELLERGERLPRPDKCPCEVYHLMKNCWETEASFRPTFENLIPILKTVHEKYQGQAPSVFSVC

Chain of JAK3 (P52333 whole entry): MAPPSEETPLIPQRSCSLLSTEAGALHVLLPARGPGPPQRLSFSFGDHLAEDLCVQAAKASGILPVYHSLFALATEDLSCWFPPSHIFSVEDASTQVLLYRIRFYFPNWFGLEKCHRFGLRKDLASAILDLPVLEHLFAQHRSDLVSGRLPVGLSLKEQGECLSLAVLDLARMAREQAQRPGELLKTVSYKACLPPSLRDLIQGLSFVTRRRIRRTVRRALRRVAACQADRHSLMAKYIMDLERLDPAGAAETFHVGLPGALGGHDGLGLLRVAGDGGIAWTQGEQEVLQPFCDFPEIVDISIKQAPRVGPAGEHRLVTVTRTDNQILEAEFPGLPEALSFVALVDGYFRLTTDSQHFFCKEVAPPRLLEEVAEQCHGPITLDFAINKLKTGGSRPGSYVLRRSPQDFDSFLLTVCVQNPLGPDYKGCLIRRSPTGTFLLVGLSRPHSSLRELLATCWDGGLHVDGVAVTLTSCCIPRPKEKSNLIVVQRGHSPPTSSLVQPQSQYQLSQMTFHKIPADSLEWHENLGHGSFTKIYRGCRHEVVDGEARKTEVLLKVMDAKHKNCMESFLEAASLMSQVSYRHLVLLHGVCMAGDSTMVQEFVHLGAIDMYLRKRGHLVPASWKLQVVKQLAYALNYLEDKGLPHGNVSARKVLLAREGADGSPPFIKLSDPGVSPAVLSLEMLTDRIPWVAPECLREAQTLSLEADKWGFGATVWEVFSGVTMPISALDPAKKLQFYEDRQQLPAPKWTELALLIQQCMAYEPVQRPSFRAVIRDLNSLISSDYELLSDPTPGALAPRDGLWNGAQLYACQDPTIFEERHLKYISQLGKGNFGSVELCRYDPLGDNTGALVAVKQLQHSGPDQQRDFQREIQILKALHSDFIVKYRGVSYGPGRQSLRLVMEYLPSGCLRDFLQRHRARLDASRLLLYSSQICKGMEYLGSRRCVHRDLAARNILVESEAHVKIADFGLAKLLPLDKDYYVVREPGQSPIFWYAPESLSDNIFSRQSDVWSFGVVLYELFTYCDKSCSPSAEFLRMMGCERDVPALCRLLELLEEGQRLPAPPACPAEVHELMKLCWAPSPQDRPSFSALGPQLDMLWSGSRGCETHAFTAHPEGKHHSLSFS

OCCN(CCO)C[C@H]1CC[C@H](c2nnn3cnc4[nH]ccc4c23)CC1 [compound 298, 2,2′-({[trans-4-(7H-pyrrolo[3,2-e][1,2,3]triazolo[1,5-c]pyrimidin-1-yl)cyclohexyl]methyl}azanediyl)diethanol]
IC50 (JAK2): 0.11 µM
IC50 (JAK3): > 1 µM
IC50 (JAK1): 0.019 µM
IC50 (Tyk2): 0.59 µM

N#C/C(=C\N1CCC(c2nnn3cnc4[nH]ccc4c23)CC1)c1ccccc1 [compound 230, (Z)-3-[4-(7H-pyrrolo[3,2-e][1,2,3]triazolo[1,5-c]pyrimidin-1-yl)piperidin-1-yl]-2-phenylacrylonitrile]
IC50 (JAK2): 0.13 µM
IC50 (JAK3): > 1 µM
IC50 (JAK1): 0.035 µM
IC50 (Tyk2): > 1 µM

O=C1COc2cc(NC[C@H]3CC[C@H](c4nnn5cnc6[nH]ccc6c45)CC3)ccc2N1 [compound 273, 7-({[trans-4-(7H-pyrrolo[3,2-e][1,2,3]triazolo[1,5-c]pyrimidin-1-yl)cyclohexyl]methyl}amino)-2H-benzo[b][1,4]oxazin-3(4H)-one]
IC50 (JAK2): 0.021 µM
IC50 (JAK3): 0.57 µM
IC50 (JAK1): 0.0046 µM
IC50 (Tyk2): 0.24 µM

O=C(CC(F)(F)F)N(CC(F)(F)F)C[C@H]1CC[C@H](c2nnn3cnc4[nH]ccc4c23)CC1 [compound 411, N-{[trans-4-(7H-Pyrrolo[3,2-e][1,2,3]triazolo[1,5-c]pyrimidin-1-yl)cyclohexyl]methyl}-3,3,3-trifluoro-N-(2,2,2-trifluoroethyl)propanamide]
IC50 (JAK2): 0.015 µM
IC50 (JAK3): 0.17 µM
IC50 (JAK1): 0.0043 µM
IC50 (Tyk2): 0.36 µM

OC1CCN(C[C@H]2CC[C@H](c3nnn4cnc5[nH]ccc5c34)CC2)CC1 [compound 271, 1-{[trans-4-(7H-pyrrolo[3,2-e][1,2,3]triazolo[1,5-c]pyrimidin-1-yl)cyclohexyl]methyl}piperidin-4-ol]
IC50 (JAK2): 0.063 µM
IC50 (JAK3): > 1 µM
IC50 (JAK1): 0.02 µM
IC50 (Tyk2): 0.43 µM

O=C(NC[C@@H](O)c1ccccc1)[C@H]1CC[C@H](c2nnn3cnc4[nH]ccc4c23)CC1 [compound 353, trans-N-[(S)-2-hydroxy-2-phenylethyl]-4-(7H-pyrrolo[3,2-e][1,2,3]triazolo[1,5-c]pyrimidin-1-yl)cyclohexanecarboxamide]
IC50 (JAK2): 0.031 µM
IC50 (JAK3): 0.35 µM
IC50 (JAK1): 0.0029 µM
IC50 (Tyk2): 0.46 µM

Fc1ccc(CN[C@H]2CC[C@@H](c3nnn4cnc5[nH]ccc5c34)CC2)cc1 [195a, cis-N-(4-fluorobenzyl)-4-(7H-pyrrolo[3,2-e][1,2,3]triazolo[1,5-c]pyrimidin-1-yl)cyclohexanamine]
IC50 (JAK2; Table^a 154): 0.55 µM
IC50 (JAK3; Table^a 154): > 1 µM
IC50 (JAK1; Table^a 154): 0.03 µM
IC50 (Tyk2; Table^a 154): 0.31 µM

OC[C@@H]1CCCN1C[C@H]1CC[C@H](c2nnn3cnc4[nH]ccc4c23)CC1 [compound 266, ((S)-1-{[trans-4-(7H-pyrrolo[3,2-e][1,2,3]triazolo[1,5-c]pyrimidin-1-yl)cyclohexyl]methyl}pyrrolidin-2-yl)methanol]
IC50 (JAK2): 0.11 µM
IC50 (JAK3): > 1 µM
IC50 (JAK1): 0.025 µM
IC50 (Tyk2): 0.35 µM

CN(CCC#N)C[C@H]1CC[C@H](c2nnn3cnc4[nH]ccc4c23)CC1 [compound 302, 3-({[trans-4-(7H-pyrrolo[3,2-e][1,2,3]triazolo[1,5-c]pyrimidin-1-yl)cyclohexyl]methyl}(methyl)amino)propanenitrile]
IC50 (JAK2): 0.029 µM
IC50 (JAK3): 0.49 µM
IC50 (JAK1): 0.012 µM
IC50 (Tyk2): 0.36 µM

IC[C@H]1CC[C@H](c2nnn3cnc4[nH]ccc4c23)CC1 [compound 367]
IC50 (JAK2): 0.0043 µM
IC50 (JAK3): 0.054 µM
IC50 (JAK1): 0.00099 µM
IC50 (Tyk2): 0.0073 µM

Cc1ccc(CN(C[C@H]2CC[C@H](c3nnn4cnc5[nH]ccc5c34)CC2)C(=O)CC#N)o1 [compound 410, N-{[trans-4-(7H-pyrrolo[3,2-e][1,2,3]triazolo[1,5-c]pyrimidin-1-yl)cyclohexyl]methyl}-2-cyano-N-[(5-methylfuran-2-yl)methyl]acetamide]
IC50 (JAK2): 0.04 µM
IC50 (JAK3): 0.32 µM
IC50 (JAK1): 0.022 µM
IC50 (Tyk2): 0.58 µM

N#CC1CN(C(=O)[C@H]2CC[C@H](c3nnn4cnc5[nH]ccc5c34)CC2)C1 [compound 363, 1-[trans-4-(7H-pyrrolo[3,2-e][1,2,3]triazolo[1,5-c]pyrimidin-1-yl)cyclohexanecarbonyl]azetidine-3-carbonitrile]
IC50 (JAK2): 0.29 µM
IC50 (JAK3): > 1 µM
IC50 (JAK1): 0.044 µM
IC50 (Tyk2): > 1 µM

FC(F)(F)C1(NC[C@H]2CC[C@H](c3nnn4cnc5[nH]ccc5c34)CC2)CC1 [compound 292, N-{[trans-4-(7H-pyrrolo[3,2-e][1,2,3]triazolo[1,5-c]pyrimidin-1-yl)cyclohexyl]methyl}-1-(trifluoromethyl)cyclopropanamine]
IC50 (JAK2): 0.017 µM
IC50 (JAK3): 0.39 µM
IC50 (JAK1): 0.0027 µM
IC50 (Tyk2): 0.27 µM

Cc1ccc(CNC(=O)[C@H]2CC[C@H](c3nnn4cnc5[nH]ccc5c34)CC2)o1 [compound 349, trans-N-[(5-methylfuran-2-yl)methyl]-4-(7H-pyrrolo[3,2-e][1,2,3]triazolo[1,5-c]pyrimidin-1-yl)cyclohexanecarboxamide]
IC50 (JAK2): 0.048 µM
IC50 (JAK3): > 1 µM
IC50 (JAK1): 0.0059 µM
IC50 (Tyk2): 0.25 µM

FC(F)(F)c1ccc(CN[C@H]2CC[C@H](c3nnn4cnc5[nH]ccc5c34)CC2)cc1 [138b]
IC50 (JAK2; Table^a 154): 0.043 µM
IC50 (JAK3; Table^a 154): 0.4 µM
IC50 (JAK1; Table^a 154): 0.0043 µM
IC50 (Tyk2; Table^a 154): 0.046 µM

N#CC[C@H]1CC[C@H](c2nnn3cnc4[nH]ccc4c23)CC1 [435b, 2-[trans-4-(7H-Pyrrolo[3,2-e][1,2,3]triazolo[1,5-c]pyrimidin-1-yl)cyclohexyl]acetonitrile]
IC50 (JAK2): 0.0025 µM
IC50 (JAK3): 0.032 µM
IC50 (JAK1): 0.00011 µM
IC50 (Tyk2): 0.0029 µM

c1cc(CN2CCC(c3nnn4cnc5[nH]ccc5c34)CC2)ccn1 [compound 239, 1-[1-(pyridin-4-ylmethyl)piperidin-4-yl]-7H-pyrrolo[3,2-e][1,2,3]triazolo[1,5-c]pyrimidine]
IC50 (JAK2): 0.035 µM
IC50 (JAK3): 0.61 µM
IC50 (JAK1): 0.0081 µM
IC50 (Tyk2): 0.65 µM

O[C@H]1CCCC[C@H]1CNC[C@H]1CC[C@H](c2nnn3cnc4[nH]ccc4c23)CC1 (relative stereo) [compound 312, cis-2-[({[trans-4-(7H-pyrrolo[3,2-e][1,2,3]triazolo[1,5-c]pyrimidin-1-yl)cyclohexyl]methyl}amino)methyl]cyclohexanol]
IC50 (JAK2): 0.045 µM
IC50 (JAK3): > 1 µM
IC50 (JAK1): 0.012 µM
IC50 (Tyk2): 0.37 µM

O=C1CN(C[C@H]2CC[C@H](c3nnn4cnc5[nH]ccc5c34)CC2)CCN1 [compound 260, 4-{[trans-4-(7H-pyrrolo[3,2-e][1,2,3]triazolo[1,5-c]pyrimidin-1-yl)cyclohexyl]methyl}piperazin-2-one]
IC50 (JAK2): 0.048 µM
IC50 (JAK3): > 1 µM
IC50 (JAK1): 0.024 µM
IC50 (Tyk2): 0.97 µM

O=C([C@H]1CC[C@H](c2nnn3cnc4[nH]ccc4c23)CC1)N1CC[C@H](F)C1 [compound 209, [trans-4-(7H-pyrrolo[3,2-e][1,2,3]triazolo[1,5-c]pyrimidin-1-yl)cyclohexyl][(S)-3-fluoropyrrolidin-1-yl]methanone]
IC50 (JAK2; Table^a 154): 0.42 µM
IC50 (JAK3; Table^a 154): > 1 µM
IC50 (JAK1; Table^a 154): 0.061 µM
IC50 (Tyk2; Table^a 154): > 1 µM

O=C(OCc1ccccc1)N1CCCC(c2nnn3cnc4[nH]ccc4c23)C1 (racemic) [compound 14]
IC50 (JAK2; Table^a 154): 0.11 µM
IC50 (JAK1; Table^a 154): 0.021 µM
IC50 (Tyk2; Table^a 154): 2.2 µM

OC(CN[C@H]1CC[C@H](c2nnn3cnc4[nH]ccc4c23)CC1)(c1ccc(F)cc1)C(F)(F)F (mixture of isomers) [200b, 3-{[trans-4-(7H-pyrrolo[3,2-e][1,2,3]triazolo[1,5-c]pyrimidin-1-yl)cyclohexyl]amino}-1,1,1-trifluoro-2-(4-fluorophenyl)propan-2-ol]
IC50 (JAK2; Table^a 154): 0.032 µM
IC50 (JAK1; Table^a 154): 0.0025 µM
IC50 (Tyk2; Table^a 154): 0.24 µM

FC1(F)CCC(c2nnn3cnc4[nH]ccc4c23)CC1 [compound 64]
IC50 (JAK2; Table^a 154): 0.12 µM
IC50 (JAK1; Table^a 154): 0.033 µM
IC50 (Tyk2; Table^a 154): 0.31 µM

OC(CN[C@H]1CC[C@H](c2nnn3cnc4[nH]ccc4c23)CC1)(c1ccc(Cl)cc1)C(F)(F)F (mixture of isomers) [199b, 3-((trans-4-(7H-pyrrolo[3,2-e][1,2,3]triazolo[1,5-c]pyrimidin-1-yl)cyclohexyl)amino)-2-(4-chlorophenyl)-1,1,1-trifluoropropan-2-ol]
IC50 (JAK2; Table^a 154): 0.035 µM
IC50 (JAK1; Table^a 154): 0.0035 µM
IC50 (Tyk2; Table^a 154): 0.44 µM

N#Cc1ccc(NC[C@H]2CC[C@H](c3nnn4cnc5[nH]ccc5c34)CC2)cc1Cl [compound 247, 4-({[trans-4-(7H-pyrrolo[3,2-e][1,2,3]triazolo[1,5-c]pyrimidin-1-yl)cyclohexyl]methyl}amino)-2-chlorobenzonitrile]
IC50 (JAK2): 0.09 µM
IC50 (JAK1): 0.013 µM
IC50 (Tyk2): > 1 µM

OC(CN[C@H]1CC[C@H](c2nnn3cnc4[nH]ccc4c23)CC1)(c1ccccc1)C(F)(F)F (mixture of isomers) [196b, 3-{[trans-4-(7H-pyrrolo[3,2-e][1,2,3]triazolo[1,5-c]pyrimidin-1-yl)cyclohexyl]amino}-1,1,1-trifluoro-2-phenylpropan-2-ol]
IC50 (JAK2; Table^a 154): 0.036 µM
IC50 (JAK1; Table^a 154): 0.0032 µM

FC(F)(F)Oc1ccc(CNC[C@H]2CC[C@H](c3nnn4cnc5[nH]ccc5c34)CC2)cc1 [compound 110]
IC50 (JAK2; Table^a 154): 0.091 µM
IC50 (JAK1; Table^a 154): 0.0056 µM

c1cc2c(ncn3nnc(C4CCCCCC4)c23)[nH]1 [compound 66]
IC50 (JAK2; Table^a 154): 0.013 µM
IC50 (JAK1; Table^a 154): 0.0033 µM
IC50 (Tyk2; Table^a 154): 0.027 µM

OC(CNC[C@H]1CC[C@H](c2nnn3cnc4[nH]ccc4c23)CC1)(c1ccccc1)C(F)(F)F (mixture of isomers) [compound 172, 3-({[trans-4-(7H-pyrrolo[3,2-e][1,2,3]triazolo[1,5-c]pyrimidin-1-yl)cyclohexyl]methyl}amino)-1,1,1-trifluoro-2-phenylpropan-2-ol]
IC50 (JAK2; Table^a 154): 0.093 µM
IC50 (JAK1; Table^a 154): 0.013 µM
IC50 (Tyk2; Table^a 154): 0.63 µM
